Here are results for 9 compounds from ChEMBL document CHEMBL1124152, “Conformationally constrained renin inhibitory peptides: gamma-lactam-bridged dipeptide isostere as conformational restriction” (J Med Chem, 1988).

pIC50: −log10 of the molar value.

One experiment has as its target T1, Renin (Homo sapiens) (UniProt P00797).
T1 sequence (whole entry): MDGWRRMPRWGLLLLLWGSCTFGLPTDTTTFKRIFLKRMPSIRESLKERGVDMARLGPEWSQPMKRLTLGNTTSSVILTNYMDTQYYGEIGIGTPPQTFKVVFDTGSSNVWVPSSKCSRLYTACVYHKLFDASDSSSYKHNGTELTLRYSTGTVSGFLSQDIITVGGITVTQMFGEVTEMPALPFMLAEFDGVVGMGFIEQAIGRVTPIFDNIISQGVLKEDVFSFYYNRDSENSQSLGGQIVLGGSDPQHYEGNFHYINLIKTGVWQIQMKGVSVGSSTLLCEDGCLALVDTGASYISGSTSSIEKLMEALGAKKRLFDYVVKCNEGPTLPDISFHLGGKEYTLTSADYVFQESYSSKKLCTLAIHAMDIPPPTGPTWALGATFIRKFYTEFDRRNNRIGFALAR
The experiment can be described thus: Inhibitory activity against human plasma renin at 10e-5 M. Type of experiment: cell-free.
The compound `CCCC[C@@H](C(=O)N[C@@H](CC(C)C)[C@@H](O)CC(=O)N[C@H](C(=O)NCc1ccccn1)[C@H](C)CC)N1CCC(Cc2ccccc2)C1=O` (stereo in doubt; form 1) yielded an inhibition of 46%.
Still for that read-out and setting: the result for `CCCC[C@@H](C(=O)N[C@@H](CC(C)C)[C@@H](O)CC(=O)N[C@H](C(=O)NCc1ccccn1)[C@H](C)CC)N1CCC(Cc2ccccc2)C1=O` (stereo in doubt; form 2) reads 46%.

For the next experiment, the target named is T2, Renin (Homo sapiens, UniProt P00797).
T2 sequence (P00797 whole entry): T1 sequence (whole entry)
The experiment can be described thus: Inhibitory activity against human plasma renin. It is filed as cell-free.
For the compound `CCCC[C@H](NC(=O)CCc1ccccc1)C(=O)N[C@@H](CC(C)C)[C@@H](O)CC(=O)N[C@H](C(=O)NCc1ccccn1)[C@H](C)CC`, the pIC50 is 6.46.
`CCCC[C@H](NC(=O)CCc1ccccc1)C(=O)N[C@@H](CC(C)C)[C@@H](O)C[C@H](C(=O)N[C@H](C(=O)NCc1ccccn1)[C@H](C)CC)C(C)C` showed a pIC50 of 6.92.
`CCCC[C@H](NC(=O)[C@H](Cc1ccccc1)NC(=O)OCc1ccccc1)C(=O)N[C@@H](CC(C)C)[C@@H](O)C[C@H](C(=O)N[C@H](C(=O)NCc1ccccn1)[C@H](C)CC)C(C)C` gave a pIC50 of 7.59.
Same read-out and setting: the result for `CCCC[C@@H](C(=O)N[C@@H](CC(C)C)[C@@H](O)C[C@H](C(=O)N[C@H](C(=O)NCc1ccccn1)[C@H](C)CC)C(C)C)N1CCC(Cc2ccccc2)(NC(=O)OCc2ccccc2)C1=O` (stereo in doubt; form 1) reads 8.19; that for `CCCC[C@@H](C(=O)N[C@@H](CC(C)C)[C@@H](O)C[C@H](C(=O)N[C@H](C(=O)NCc1ccccn1)[C@@H](C)CC)C(C)C)N1CCC(Cc2ccccc2)C1=O` (stereo in doubt; form 1), 7.57.
Same read-out and setting: the result for `CCCC[C@@H](C(=O)N[C@@H](CC(C)C)[C@@H](O)C[C@H](C(=O)N[C@H](C(=O)NCc1ccccn1)[C@H](C)CC)C(C)C)N1CCC(Cc2ccccc2)(NC(=O)OCc2ccccc2)C1=O` (stereo in doubt; form 2) reads 8.19.
Still for that read-out and setting: then `CCCC[C@@H](C(=O)N[C@@H](CC(C)C)[C@@H](O)C[C@H](C(=O)N[C@H](C(=O)NCc1ccccn1)[C@@H](C)CC)C(C)C)N1CCC(Cc2ccccc2)C1=O` (stereo in doubt; form 2), with 7.85.

As a reminder, the inhibition is the relative decrease from the control value, in per cent. As a reminder, the pIC50 is −log10 of the IC50, conventionally taken in molar units. A lower pIC50 goes with a high IC50.
